Assay results taken from ChEMBL document CHEMBL1153320, “Development of the renal glucose reabsorption inhibitors: a new mechanism for the pharmacotherapy of diabetes mellitus type 2” (J Med Chem, 2009).

Columns and labels:
[1] = target: T1, Sodium/glucose cotransporter 2 (Homo sapiens, UniProt P31639); assay: Inhibition of human kidney SGLT2 assessed as renal glucose reabsorption
T1 sequence (P31639 whole entry): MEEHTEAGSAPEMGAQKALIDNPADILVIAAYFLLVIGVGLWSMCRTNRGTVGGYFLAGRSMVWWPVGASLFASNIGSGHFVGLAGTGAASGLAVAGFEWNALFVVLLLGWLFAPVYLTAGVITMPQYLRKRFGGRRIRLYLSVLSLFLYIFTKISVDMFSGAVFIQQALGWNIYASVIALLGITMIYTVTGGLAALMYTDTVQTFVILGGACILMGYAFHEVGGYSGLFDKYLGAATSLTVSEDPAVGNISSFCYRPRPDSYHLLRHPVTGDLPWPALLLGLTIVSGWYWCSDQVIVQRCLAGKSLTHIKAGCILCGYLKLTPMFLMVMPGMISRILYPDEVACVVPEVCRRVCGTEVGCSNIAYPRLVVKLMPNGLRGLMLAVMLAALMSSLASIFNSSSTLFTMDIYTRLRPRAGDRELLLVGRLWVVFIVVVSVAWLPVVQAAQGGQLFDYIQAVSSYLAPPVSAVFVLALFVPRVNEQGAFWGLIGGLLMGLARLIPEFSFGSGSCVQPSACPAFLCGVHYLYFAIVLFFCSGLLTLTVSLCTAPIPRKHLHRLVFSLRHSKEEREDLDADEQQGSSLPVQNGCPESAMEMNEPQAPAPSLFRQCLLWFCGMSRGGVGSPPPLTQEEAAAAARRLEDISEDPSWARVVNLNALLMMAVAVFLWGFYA

Rattus norvegicus [2] = assay: Antidiabetic activity in normal Sprague-Dawley rat assessed as urinary glucose excretion at 10 mg/kg, po after 24 hrs; type: functional, Urine
Rattus norvegicus [3] = assay: Antidiabetic activity in normal Sprague-Dawley rat assessed as urinary glucose excretion at 30 mg/kg, po after 24 hrs; type: functional, Urine
Rattus norvegicus [4] = assay: Antidiabetic activity in normal Sprague-Dawley rat assessed as urinary glucose excretion at 100 mg/kg, po after 24 hrs; type: functional, Urine
Rattus norvegicus [5] = assay: Antidiabetic activity in normal Sprague-Dawley rat assessed as urinary glucose excretion at 300 mg/kg, po after 24 hrs; type: functional, Urine
Homo sapiens [6] = assay: Antidiabetic activity in po dosed type 2 diabetes mellitus patient assessed as reduction in HbA1C level […]; type: functional; set-up: scale not given: the % may be the effect or the level left
Homo sapiens [7] = assay: Antidiabetic activity in po dosed type 2 diabetes mellitus patient assessed as reduction in HbA1C level in small intestine; type: functional; set-up: scale not given: the % may be the effect or the level left
Rattus norvegicus [8] = assay: Antidiabetic activity in normal Sprague-Dawley rat assessed as urinary glucose excretion at 1 mg/kg, po after 24 hrs; type: functional, Urine
[9] = Half life in normal human at 10 to 100 mg/day, po administered as single ascending dose; details: in vivo
[10] = Clearance in normal human at 10 to 100 mg/day, po administered as single ascending dose; details: in vivo
clinical = details: human, in vivo, po
Homo sapiens [11] = assay: Antidiabetic activity in type 2 diabetes mellitus patient assessed as reduction in HbA1C level at 750 mg, po daily measured after 12 weeks; type: functional; set-up: scale not given: the % may be the effect or the level left
Homo sapiens [12] = species on record: Homo sapiens; assay: Antidiabetic activity in type 2 diabetes mellitus patient assessed as reduction body weight; type: functional; set-up: scale not given: the % may be the effect or the level left
Homo sapiens [13] = assay: Antidiabetic activity in po dosed type 2 diabetes mellitus patient assessed as reduction in HbA1C level in liver; type: functional; set-up: scale not given: the % may be the effect or the level left
Homo sapiens [14] = assay: Antidiabetic activity in po dosed type 2 diabetes mellitus patient assessed as reduction in HbA1C level in intestine; type: functional; set-up: scale not given: the % may be the effect or the level left
Rattus norvegicus [15] = assay: Antidiabetic activity in normal Sprague-Dawley rat assessed as urinary glucose excretion at 3 mg/kg, po after 24 hrs; type: functional, Urine
Homo sapiens [16] = species on record: Homo sapiens; assay: Selectivity for human SGLT2 over human SGLT1
Homo sapiens [17] = assay: Antidiabetic activity in po dosed type 2 diabetes mellitus patient assessed as reduction in HbA1C level in adipose tissue; type: functional; set-up: scale not given: the % may be the effect or the level left
Homo sapiens [18] = assay: Antidiabetic activity in po dosed type 2 diabetes mellitus patient assessed as reduction in HbA1C level in skeletal muscle; type: functional, Muscle tissue; set-up: scale not given: the % may be the effect or the level left
Homo sapiens [19] = assay: Antidiabetic activity in normal human assessed as plasma glucose level at 500 mg, po after 4 hrs by OGTT; type: functional
Homo sapiens [20] = assay: Antidiabetic activity in over-weight subject assessed as reduction of body weight at […], po tid for 2 weeks; type: functional
Homo sapiens [21] = assay: Antidiabetic activity in normal human assessed as reduction urinary glucose excretion at 200 mg, po after 24 hrs; type: functional, Urine
Homo sapiens [22] = assay: Antidiabetic activity in normal human assessed as reduction urinary glucose excretion at 500 mg, po after 24 hrs; type: functional, Urine

## Cc1cc(O)c(C(=O)CCc2ccc3occc3c2)c(O[C@@H]2O[C@H](CO)[C@@H](O)[C@H](O)[C@H]2O)c1
[1]
  IC50: 50 nM

## CCNC(=O)c1c(O)c(Cc2ccc(OC)cc2)cc([C@@H]2O[C@H](CO)[C@@H](O)[C@H](O)[C@H]2O)c1O
[1]
  EC50: 500 nM

## COC(=O)OC[C@H]1O[C@@H](Oc2cc(C)cc(O)c2C(=O)CCc2ccc3occc3c2)[C@H](O)[C@@H](O)[C@@H]1O
Rattus norvegicus [2]
  Activity: 50 mg
Rattus norvegicus [3]
  Activity: 450 mg
Rattus norvegicus [4]
  Activity: 1000 mg
Rattus norvegicus [5]
  Activity: 2000 mg

## CCc1ccc(Cc2ccccc2[C@@H]2O[C@H](CO)[C@@H](O)[C@H](O)[C@H]2O)cc1
[1]
  EC50: > 2 nM

## C[C@H]1O[C@H](O[C@H]2[C@H](O)[C@@H](O)[C@@H](O[C@H]3[C@H](O)[C@@H](O)C(O)O[C@@H]3CO)O[C@@H]2CO)[C@H](O)[C@@H](O)[C@@H]1N[C@H]1C=C(CO)[C@@H](O)[C@H](O)[C@H]1O (stereo partly specified) [ACARBOSE]
Homo sapiens [6]
  Activity: 0.5%
Homo sapiens [7]
  Activity: 0.5%

## CCOc1ccc(Cc2cc([C@@H]3O[C@H](CO)[C@@H](O)[C@H](O)[C@H]3O)ccc2Cl)cc1 [DAPAGLIFLOZIN]
Rattus norvegicus [8]
  Activity: 1100 mg
[9]
  half-life: 15 h
[10]
  CL/F: 6 mL/min
clinical
  Tmax: 1 h

## CCC1=C(C)CN(C(=O)NCCc2ccc(S(=O)(=O)NC(=O)N[C@H]3CC[C@H](C)CC3)cc2)C1=O [GLIMEPIRIDE]
Homo sapiens [6]
  Activity: 1%

## C/N=C(\N)N(C)C(=N)N.Cl [METFORMIN XR]
Homo sapiens [11]
  Activity: 0.73%
Homo sapiens [12]
  Activity: 2.3%

## CN(C)C(=N)NC(=N)N [METFORMIN]
Homo sapiens [13]
  Activity: 1%
Homo sapiens [14]
  Activity: 1%
Homo sapiens [6]
  Activity: 1%

## O=C(CCc1ccc(O)cc1)c1c(O)cc(O)cc1O[C@@H]1O[C@H](CO)[C@@H](O)[C@H](O)[C@H]1O [PHLORIZIN]
Rattus norvegicus [5]
  Activity: 80 mg

## CCOC(=O)OC[C@H]1O[C@@H](Oc2nn(C(C)C)c(C)c2Cc2ccc(OC(C)C)cc2)[C@H](O)[C@@H](O)[C@@H]1O [REMOGLIFLOZIN ETABONATE]
Rattus norvegicus [8]
  Activity: 36 mg
Rattus norvegicus [15]
  Activity: 95 mg
Rattus norvegicus [2]
  Activity: 320 mg

## Cc1c(Cc2ccc(OC(C)C)cc2)c(O[C@@H]2O[C@H](CO)[C@@H](O)[C@H](O)[C@H]2O)nn1C(C)C [REMOGLIFLOZIN]
[1]
  EC50: 14 nM
  Ki: 12.4 nM
Homo sapiens [16]
  Ratio: 365

## CCOc1cc(CC(=O)N[C@@H](CC(C)C)c2ccccc2N2CCCCC2)ccc1C(=O)O [REPAGLINIDE]
Homo sapiens [6]
  Activity: 1%

## CN(CCOc1ccc(CC2SC(=O)NC2=O)cc1)c1ccccn1 (stereo unspecified) [ROSIGLITAZONE]
Homo sapiens [13]
  Activity: 0.5%
Homo sapiens [17]
  Activity: 0.5%
Homo sapiens [18]
  Activity: 0.5%

## COc1ccc(Cc2ccccc2O[C@@H]2O[C@H](CO)[C@@H](O)[C@H](O)[C@H]2O)cc1 [SERGLIFLOZIN A]
[1]
  EC50: 9 nM
  Ki: 2.4 nM
Homo sapiens [16]
  Ratio: 296

## CCOC(=O)OC[C@H]1O[C@@H](Oc2ccccc2Cc2ccc(OC)cc2)[C@H](O)[C@@H](O)[C@@H]1O [SERGLIFLOZIN ETABONATE]
Rattus norvegicus [15]
  Activity: 80 mg
Rattus norvegicus [2]
  Activity: 180 mg
Rattus norvegicus [3]
  Activity: 400 mg
Homo sapiens [19]
  Activity: 7 mmol·h/L
Homo sapiens [20]
  Activity: 1.5 kg
Homo sapiens [21]
  Activity: 12 g
Homo sapiens [22]
  Activity: 17 g

## N[C@@H](CC(=O)N1CCn2c(nnc2C(F)(F)F)C1)Cc1cc(F)c(F)cc1F [SITAGLIPTIN]
Homo sapiens [14]
  Activity: 0.6%
